Here are results for 5 compounds from patent US10227281B2, “Preparation of 2,6- and 2,7-disubstituted anthraquinone derivates” (BASF SE, priority 2014, dated 2019).

Data set [1] can be described thus: Solubility of the anthrahydroquinone from the amount of absorbed hydrogen until precipitation. In kind it is physicochemical. The conditions noted are these: hydroquinone form, equivolume mixture of xylene and diisobutylcarbinol, 30° C. The procedure:
5 g of the anthraquinone derivative obtained from Example 4 were dissolved in an equivolume mixture of xylene and diisobutylcarbinol at 30° C. to obtain 100 ml of an anthraquinone solution. 2 g of a palladium catalyst on alumina was added to 50 ml of the anthraquinone solution and then the solution was made to absorb the theoretical amount of hydrogen at 30° C. The obtained solution has been left untouched for 15 h to thoroughly precipitate the excess of anthrahydroquinone. After the catalyst and the precipitate have been separated by filtration under a current of nitrogen, the resulting solution was stirred under air in order to oxidize the anthrahydroquinone back to the corresponding anthraquinone. The produced hydrogen peroxide was extracted with water. After the extraction of the hydrogen peroxide was completed, 25 mL of the working solution were further submitted to subsequent hydrogenation at 30° C. as described above until a state of saturation was reached.

Data set [2] is described as follows: Determination of the solubility of anthraquinone derivatives in xylene/diisobutylcarbinol. The conditions noted are these: for Solubility in the solvent system used (in words): xylene/diisobutylcarbinol solvent system, comparison of the derivatives.
Description: 0.06 ml of a mixture of xylene (50 volume-%) and diisobutylcarbinol (50 volume-%) were added to 1 g of the respective anthraquinone derivative at 22° C. every 60 seconds until the anthraquinone derivative was dissolved completely.
Where [3] appears, read: mixture of xylene (50 volume-%) and diisobutylcarbinol (50 volume-%), 22° C., quinone form.

Values after ≈ are worked out from the molar mass of the structure shown.

As usually defined, the Solubility is the concentration that dissolves in the medium under given conditions. “2,6-diisohexylanthracene-9,10-dione and 2,7-diisohexylanthracene-9,10-dione [Example 4]”: in data set [1], the “Solubility of the anthrahydroquinone” value worked out at 1010 mM. Besides, the Solubility in data set [2] (setting [3]) was 1610 mM. For the same compound, in data set [2], the “Solubility in the solvent system used (in words)” value (shortened to “Solubility … (in words)”) is reported as “highest solubility”.

For the compound `Cc1cc2c(cc1C)C(=O)c1cc(C)c(C)cc1C2=O` [Comparative Example 3, 2,3,6,7-tetramethylanthracene-9,10-dione], the Solubility result in data set [2] (setting [3]) is “Insoluble”. Besides, the “Solubility … (in words)” value in data set [2] is listed as “insoluble”.

For `CCc1ccc2c(c1)C(=O)c1ccccc1C2=O` [2-ethylanthraquinone], the “Solubility … (in words)” value in data set [2] is “only poorly soluble”.

With “2,6-bis(4-methylpent-3-enyl)anthracene-9,10-dione and 2,7-bis(4-methylpent-3-enyl)anthracene-9,10-dione [Example 1]”, the Solubility in data set [2] (setting [3]) was 770 mM.

In the case of `CC(C)=CCc1ccc2c(c1)C(=O)c1ccccc1C2=O` [Comparative Example 1, 2-(3-methylbut-2-en-1-yl)anthracene-9,10-dione], in data set [2] (xylene/diisobutylcarbinol mixture (50:50 by volume)), the Solubility is 770 mM (≈ 213 mg/mL).
